Patent US8481750B2 (Boehringer Ingelheim International GmbH, priority 2009, dated 2013)

target: LFA-1 binding to ICAM-1 (Homo sapiens, UniProt P05107+P20701); assay: Inhibition of LFA-1 binding to ICAM-1 (LFA-1/Biotin-sICAM-1 AlphaScreen molecular assay); details: highest compound concentration 1 μM in 1% DMSO, 37° C., 90 minutes
Description: Assay to Determine Inhibition of LFA-1 Binding to ICAM-1
This assay protocol is designed to study the direct antagonism, by a test compound, of the interaction of ICAM-1 with the Leukointegrin CD18/CD11a (LFA-1).
The LFA-1/Biotin-sICAM-1 molecular assay measures the ability of test compounds to inhibit binding of LFA-1 to Biotinylated-sICAM using AlphaScreen technology (Ref: Wilson, J, Rossi, C P, Carboni, S, Fremaux, C, Perrin, D, Soto, C, Kosco-Vilbois, M, and Scheer, A: A Homogeneous 384-Well High-Throughput Binding Assay for a TNF Receptor Using Alphascreen Technology. J Biomol Screen 2003; 8:522-532) that uses TS2/4(anti-LFA-1)-custom conjugated AlphaLisa acceptor beads and streptavidin-coated donor beads from PerkinElmer. The assay was performed in white OptiPlates-384 in a volume of 60 μL using assay buffer (Dulbecco's PBS containing calcium and magnesium, 2 mM MgCl2, 0.1 mM PMSF, 0.1% BSA, pH 7.1). To each well, Biotin-sICAM was added followed by purified LFA-1 (in buffer of 50 mM triethylamine, 150 mM NaCl, 1% beta octylglucoside, 2 mM MgCl2 neutralized to pH with 1M Tris-HCl, pH 7.5). For compound testing, compound was added in 5 uL to the above in 25 uL. LFA-1 and Biotin-sICAM-1 were used at concentrations that would yield a signal to background ratio of 8-10. The highest concentration of compound was 1 μM in 1% DMSO. Positive controls were wells without compound containing LFA-1, while blanks were wells without both compound and LFA-1. Plates were mixed and incubated at 37° C. for 90 minutes. This was followed by addition of 15 μL/well TS2/4-congugated acceptor beads diluted in PBS containing 0.1% BSA for a final concentration of 10 μg/mL. The plates were mixed and incubated in the dark for 30 minutes at room temperature followed by addition of 15 μL/well streptavidin-coated donor beads diluted in PBS containing 0.1% BSA at a final concentration of 15 μg/mL. The plates were mixed and incubated in the dark for 60 minutes at room temperature and then read on an EnVision Multilabel Reader using AlphaScreen 384-well OptiPlate protocol.

Sequence of LFA-1 binding to ICAM-1 (P20701 26-1170): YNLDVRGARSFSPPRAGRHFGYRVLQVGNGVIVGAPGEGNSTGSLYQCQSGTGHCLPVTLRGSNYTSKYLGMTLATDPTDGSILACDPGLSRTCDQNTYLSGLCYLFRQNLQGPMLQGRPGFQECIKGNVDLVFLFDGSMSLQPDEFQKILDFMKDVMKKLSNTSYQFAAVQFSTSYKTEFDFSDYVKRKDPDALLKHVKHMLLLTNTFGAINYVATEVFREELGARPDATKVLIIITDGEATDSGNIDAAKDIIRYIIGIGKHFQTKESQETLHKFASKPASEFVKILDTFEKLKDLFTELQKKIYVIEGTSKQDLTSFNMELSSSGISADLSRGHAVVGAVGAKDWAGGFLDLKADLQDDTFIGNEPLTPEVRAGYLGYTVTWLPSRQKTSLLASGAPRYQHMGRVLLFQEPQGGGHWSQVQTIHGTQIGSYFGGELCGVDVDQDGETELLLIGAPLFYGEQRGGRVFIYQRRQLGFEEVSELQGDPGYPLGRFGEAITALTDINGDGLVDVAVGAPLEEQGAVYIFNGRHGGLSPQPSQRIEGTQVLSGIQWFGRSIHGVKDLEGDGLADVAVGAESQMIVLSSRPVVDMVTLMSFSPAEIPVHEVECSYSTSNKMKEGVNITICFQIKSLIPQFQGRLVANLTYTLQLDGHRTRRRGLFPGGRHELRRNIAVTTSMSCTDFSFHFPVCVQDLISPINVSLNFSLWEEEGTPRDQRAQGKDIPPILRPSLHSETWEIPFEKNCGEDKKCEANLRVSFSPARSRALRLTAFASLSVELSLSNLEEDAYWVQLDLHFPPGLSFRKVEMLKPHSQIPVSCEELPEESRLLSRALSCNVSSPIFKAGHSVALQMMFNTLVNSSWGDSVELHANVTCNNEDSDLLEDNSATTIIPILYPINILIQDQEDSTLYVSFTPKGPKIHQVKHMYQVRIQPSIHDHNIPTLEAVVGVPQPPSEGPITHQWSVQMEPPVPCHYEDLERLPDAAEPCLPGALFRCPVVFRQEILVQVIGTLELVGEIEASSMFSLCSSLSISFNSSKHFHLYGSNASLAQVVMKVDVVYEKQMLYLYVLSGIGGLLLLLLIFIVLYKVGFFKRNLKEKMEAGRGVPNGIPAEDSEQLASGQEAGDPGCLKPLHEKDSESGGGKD
Sequence of LFA-1 binding to ICAM-1 (P05107 23-769): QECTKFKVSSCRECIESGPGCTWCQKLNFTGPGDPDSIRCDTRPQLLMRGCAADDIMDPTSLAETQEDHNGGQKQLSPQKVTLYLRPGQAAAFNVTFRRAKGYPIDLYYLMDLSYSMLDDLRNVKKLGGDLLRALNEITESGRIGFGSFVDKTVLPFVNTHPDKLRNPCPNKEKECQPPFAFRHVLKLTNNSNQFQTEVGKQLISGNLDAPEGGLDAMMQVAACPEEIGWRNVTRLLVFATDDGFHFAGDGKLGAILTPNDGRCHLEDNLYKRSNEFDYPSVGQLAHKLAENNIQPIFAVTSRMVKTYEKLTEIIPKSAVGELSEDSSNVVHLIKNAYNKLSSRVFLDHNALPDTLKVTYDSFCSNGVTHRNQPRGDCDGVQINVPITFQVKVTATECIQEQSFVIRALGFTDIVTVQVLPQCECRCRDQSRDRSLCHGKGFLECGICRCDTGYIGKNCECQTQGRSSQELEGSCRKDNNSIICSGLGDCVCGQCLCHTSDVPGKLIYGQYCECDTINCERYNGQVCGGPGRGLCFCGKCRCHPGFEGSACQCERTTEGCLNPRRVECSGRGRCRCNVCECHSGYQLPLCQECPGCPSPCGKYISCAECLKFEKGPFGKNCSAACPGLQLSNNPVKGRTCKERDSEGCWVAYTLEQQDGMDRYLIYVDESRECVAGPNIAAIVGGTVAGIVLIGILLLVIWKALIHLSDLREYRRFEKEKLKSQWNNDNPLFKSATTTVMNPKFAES

IC50 | SMILES
1 nM | C[C@@]1(Cc2ccc(C#N)cc2)C(=O)N(c2cc(Cl)cc(Cl)c2)c2ncc(C(=O)NC3(C(=O)NC4(c5cc(C(=O)NCCc6cccnc6)ccn5)CC4)CC3)n21 [compound 95]
0.74 nM | C[C@@]1(Cc2ccc(C#N)cc2)C(=O)N(c2cc(Cl)cc(Cl)c2)c2ncc(C(=O)NC3(C(=O)NC4(c5cc(C(=O)NCC(O)CO)ccn5)CC4)CC3)n21 (some centres unmarked) [compound 96]
1 nM | C[C@@]1(Cc2ccc(C#N)cc2)C(=O)N(c2cc(Cl)cc(Cl)c2)c2ncc(C(=O)NC3(C(=O)NC4(c5cc(C(=O)N6CCNCC6)ccn5)CC4)CC3)n21 [compound 97]
1.1 nM | C[C@@]1(Cc2ccc(C#N)cc2)C(=O)N(c2cc(Cl)cc(Cl)c2)c2ncc(C(=O)NC3(C(=O)NC4(c5cccc(C(N)=O)n5)CC4)CC3)n21 [compound 98]
0.52 nM | C[C@H](O)CNC(=O)c1ccc(C2(NC(=O)C3(NC(=O)c4cnc5n4[C@](C)(Cc4ccc(C#N)cc4)C(=O)N5c4cc(Cl)cc(Cl)c4)CC3)CC2)nc1 [compound 99]
0.9 nM | COCCNC(=O)c1ccnc(C2(NC(=O)C3(NC(=O)c4cnc5n4[C@](C)(Cc4ccc(C#N)cc4)C(=O)N5c4cc(Cl)cc(Cl)c4)CC3)CC2)c1 [compound 100]
0.42 nM | C[C@@]1(Cc2ccc(C#N)cc2)C(=O)N(c2cc(Cl)cc(Cl)c2)c2ncc(C(=O)NC3(C(=O)NC4(c5ccc(C(=O)N6CCCC(C(N)=O)C6)cn5)CC4)CC3)n21 (some centres unmarked) [compound 101]
0.37 nM | C[C@@H](NC(=O)c1ccc(C2(NC(=O)C3(NC(=O)c4cnc5n4[C@](C)(Cc4ccc(C#N)cc4)C(=O)N5c4cc(Cl)cc(Cl)c4)CC3)CC2)nc1)C(N)=O [compound 102]
0.75 nM | C[C@@]1(Cc2ccc(C#N)cc2)C(=O)N(c2cc(Cl)cc(Cl)c2)c2ncc(C(=O)NC3(C(=O)NC4(c5cc(C(=O)N6CC[C@H](O)C6)ccn5)CC4)CC3)n21 [compound 103]
2.3 nM | C[C@@]1(Cc2ccc(C#N)cc2)C(=O)N(c2cc(Cl)cc(Cl)c2)c2ncc(C(=O)NC3(C(=O)NC4(c5cccc(C(=O)N6CCC6)n5)CC4)CC3)n21 [compound 104]
0.65 nM | CC(C)(CO)NC(=O)c1ccnc(C2(NC(=O)C3(NC(=O)c4cnc5n4[C@](C)(Cc4ccc(C#N)cc4)C(=O)N5c4cc(Cl)cc(Cl)c4)CC3)CC2)c1 [compound 105]
0.82 nM | CN(C)CCNC(=O)c1ccc(C2(NC(=O)C3(NC(=O)c4cnc5n4[C@](C)(Cc4ccc(C#N)cc4)C(=O)N5c4cc(Cl)cc(Cl)c4)CC3)CC2)nc1 [compound 106]
0.3 nM | C[C@@]1(Cc2ccc(C#N)cc2)C(=O)N(c2cc(Cl)cc(Cl)c2)c2ncc(C(=O)NC3(C(=O)NC4(c5cc(C(=O)NCCC(N)=O)ccn5)CC4)CC3)n21 [compound 107]
3 nM | CC(C)(NC(=O)c1ccnc(C2(NC(=O)C3(NC(=O)c4cnc5n4[C@](C)(Cc4ccc(C#N)cc4)C(=O)N5c4cc(Cl)cc(Cl)c4)CC3)CC2)c1)c1ccccc1 [compound 108]
0.41 nM | C[C@@]1(Cc2ccc(C#N)cc2)C(=O)N(c2cc(Cl)cc(Cl)c2)c2ncc(C(=O)NC3(C(=O)NC4(c5ccc(C(=O)NCCn6ccnc6)cn5)CC4)CC3)n21 [compound 109]
3.4 nM | C[C@@]1(Cc2ccc(C#N)cc2)C(=O)N(c2cc(Cl)cc(Cl)c2)c2ncc(C(=O)NC3(C(=O)NC4(c5cc(C(=O)N6CCCCC6)ccn5)CC4)CC3)n21 [compound 110]
2.5 nM | CN(C)C1CCN(C(=O)c2cccc(C3(NC(=O)C4(NC(=O)c5cnc6n5[C@](C)(Cc5ccc(C#N)cc5)C(=O)N6c5cc(Cl)cc(Cl)c5)CC4)CC3)n2)C1 (some centres unmarked) [compound 111]
0.28 nM | C[C@@]1(Cc2ccc(C#N)cc2)C(=O)N(c2cc(Cl)cc(Cl)c2)c2ncc(C(=O)NC3(C(=O)NC4(c5ccc(C(=O)NCCC(N)=O)cn5)CC4)CC3)n21 [compound 112]

IC50 | SMILES
1.3 nM | CC(=O)N1CCN(C(=O)c2ccnc(C3(NC(=O)C4(NC(=O)c5cnc6n5[C@](C)(Cc5ccc(C#N)cc5)C(=O)N6c5cc(Cl)cc(Cl)c5)CC4)CC3)c2)CC1 [compound 113]
0.84 nM | C[C@@]1(Cc2ccc(C#N)cc2)C(=O)N(c2cc(Cl)cc(Cl)c2)c2ncc(C(=O)NC3(C(=O)NC4(c5cc(C(=O)NC6CCC6)ccn5)CC4)CC3)n21 [compound 114]
0.33 nM | C[C@@]1(Cc2ccc(C#N)cc2)C(=O)N(c2cc(Cl)cc(Cl)c2)c2ncc(C(=O)NC3(C(=O)NC4(c5cc(C(=O)N6CCC[C@@H]6C(N)=O)ccn5)CC4)CC3)n21 [compound 115]
0.75 nM | CC(=O)N(C)C1CCN(C(=O)c2ccc(C3(NC(=O)C4(NC(=O)c5cnc6n5[C@](C)(Cc5ccc(C#N)cc5)C(=O)N6c5cc(Cl)cc(Cl)c5)CC4)CC3)nc2)C1 (some centres unmarked) [compound 116]
0.37 nM | CC(C)(O)CNC(=O)c1ccc(C2(NC(=O)C3(NC(=O)c4cnc5n4[C@](C)(Cc4ccc(C#N)cc4)C(=O)N5c4cc(Cl)cc(Cl)c4)CC3)CC2)nc1 [compound 117]
33 nM | C[C@@H](NC(=O)c1cccc(C2(NC(=O)C3(NC(=O)c4cnc5n4[C@](C)(Cc4ccc(C#N)cc4)C(=O)N5c4cc(Cl)cc(Cl)c4)CC3)CC2)n1)c1ccccc1 [compound 118]
0.72 nM | C[C@@]1(Cc2ccc(C#N)cc2)C(=O)N(c2cc(Cl)cc(Cl)c2)c2ncc(C(=O)NC3(C(=O)NC4(c5ccc(C(=O)N6CCCC6)cn5)CC4)CC3)n21 [compound 119]
0.75 nM | CC(CO)NC(=O)c1ccnc(C2(NC(=O)C3(NC(=O)c4cnc5n4[C@](C)(Cc4ccc(C#N)cc4)C(=O)N5c4cc(Cl)cc(Cl)c4)CC3)CC2)c1 (some centres unmarked) [compound 120]
0.37 nM | CC(=O)NCCNC(=O)c1ccc(C2(NC(=O)C3(NC(=O)c4cnc5n4[C@](C)(Cc4ccc(C#N)cc4)C(=O)N5c4cc(Cl)cc(Cl)c4)CC3)CC2)nc1 [compound 121]
1.7 nM | C[C@@]1(Cc2ccc(C#N)cc2)C(=O)N(c2cc(Cl)cc(Cl)c2)c2ncc(C(=O)NC3(C(=O)NC4(c5cc(C(=O)N6CCC[C@H]6C(N)=O)ccn5)CC4)CC3)n21 [compound 122]
0.34 nM | C[C@@]1(Cc2ccc(C#N)cc2)C(=O)N(c2cc(Cl)cc(Cl)c2)c2ncc(C(=O)NC3(C(=O)NC4(c5cccc(C(=O)NC6CC6)n5)CC4)CC3)n21 [compound 123]
2.1 nM | CN(C)C(=O)c1ccc(C2(NC(=O)C3(NC(=O)c4cnc5n4[C@](C)(Cc4ccc(C#N)cc4)C(=O)N5c4cc(Cl)cc(Cl)c4)CC3)CC2)nc1 [compound 124]
0.28 nM | C[C@@]1(Cc2ccc(C#N)cc2)C(=O)N(c2cc(Cl)cc(Cl)c2)c2ncc(C(=O)NC3(C(=O)NC4(c5cccc(C(=O)N6CCCCC6CO)n5)CC4)CC3)n21 (some centres unmarked) [compound 125]
2.6 nM | C[C@@]1(Cc2ccc(C#N)cc2)C(=O)N(c2cc(Cl)cc(Cl)c2)c2ncc(C(=O)NC3(C(=O)NC4(c5ccc(C(=O)NC6CC6)cn5)CC4)CC3)n21 [compound 126]
0.5 nM | C[C@@]1(Cc2ccc(C#N)cc2)C(=O)N(c2cc(Cl)cc(Cl)c2)c2ncc(C(=O)NC3(C(=O)NC4(c5cccc(C(=O)NCC(N)=O)n5)CC4)CC3)n21 [compound 127]
0.47 nM | C[C@@H](O)CNC(=O)c1ccc(C2(NC(=O)C3(NC(=O)c4cnc5n4[C@](C)(Cc4ccc(C#N)cc4)C(=O)N5c4cc(Cl)cc(Cl)c4)CC3)CC2)nc1 [compound 128]
0.55 nM | C[C@@]1(Cc2ccc(C#N)cc2)C(=O)N(c2cc(Cl)cc(Cl)c2)c2ncc(C(=O)NC3(C(=O)NC4(c5cc(C(=O)NC(CO)CO)ccn5)CC4)CC3)n21 [compound 129]
